Measurements published in publication PMC7226469, “Polyketide-Derived Secondary Metabolites from a Dothideomycetes Fungus, Pseudopalawania siamensis gen. et sp. nov., (Muyocopronales) with Antimicrobial and Cytotoxic Activities” (Biomolecules, 2020).
In brackets after ≈: the same amount, converted by molar mass. Like-named read-outs stand apart in the source and are kept apart here.

Tests used:
[1] = test system: Bacillus subtilis; experiment: MIC, 96-well serial dilution; format: cell-based; details: for MIC: Bacillus subtilis
Protocol: (§1) Gentamicin, kanamycin, nystatin, and oxytetracycline were used as positive controls against tested organisms. […] Epothilone B and methanol were used as positive and negative control, respectively.
(§2) The polyketides 1–5 were evaluated for their antimicrobial activity against selected microorganisms (Table 3) and cytotoxicity against two mammalian cell lines, HeLa cells KB3.1 and mouse fibroblast cell line L929 (Table 4). The starting concentration for antimicrobial assay and cytotoxicity assay were 66.7 and 300 µg/mL, respectively and the substances were dissolved in MeOH (1 mg/mL). […] Results were expressed as MIC or minimum inhibitory concentration (μg/mL) and IC50 or half maximal inhibitory concentration (μM) (Table 3 and Table 4).

[2] = test system: Chromobacterium violaceum; experiment: MIC, 96-well serial dilution; format: cell-based; details: strain DSM 30191; starting concentration 66.7 µg/mL; control volume in brackets; further: key: (-): no inhibition
Protocol: as §1, §2

[3] = test system: Escherichia coli; experiment: MIC, 96-well serial dilution; format: cell-based; details: strain DSM 1116; starting concentration 66.7 µg/mL; control volume in brackets; further: key: (-): no inhibition
Protocol: as §1, §2

[4] = test system: Micrococcus luteus; experiment: MIC, 96-well serial dilution; format: cell-based; details: for MIC: Micrococcus luteus
Protocol: as §1, §2

[5] = test system: Mucor hiemalis; experiment: MIC, 96-well serial dilution; format: cell-based; on Minimum Inhibitory Concentration (MIC): key: (-): no inhibition
Protocol: as §1, §2

[6] = test system: Pseudomonas aeruginosa; experiment: MIC, 96-well serial dilution; format: cell-based; details: strain PA14; starting concentration 66.7 µg/mL; control volume in brackets; further: key: (-): no inhibition
Protocol: as §1, §2

[7] = test system: Staphylococcus aureus; experiment: MIC, 96-well serial dilution; format: cell-based; details: for MIC: Staphylococcus aureus
Protocol: as §1, §2

[8] = test system: HeLa cells KB3.1; experiment: In vitro cytotoxicity, MTT assay; format: cell-based; details: Homo sapiens; MTT assay; HeLa cells KB3.1; starting concentration 66 μg/mL; read-out: IC50
Protocol: as §1, §2

[9] = test system: Mouse fibroblast L929; experiment: In vitro cytotoxicity, MTT assay; format: cell-based; details: MTT assay; mouse fibroblast L929; starting concentration 66 μg/mL; read-out: IC50
Protocol: as §1, §2

[10] = test system: Candida albicans; experiment: MIC, 96-well serial dilution; format: cell-based
Protocol: as §1, §2

[11] = test system: Mycobacterium smegmatis; experiment: MIC, 96-well serial dilution; format: cell-based
Protocol: as §1, §2

[12] = test system: various fungal and bacterial strains; experiment: Antimicrobial activity against selected microorganisms (summary statements); format: cell-based
Protocol: as §1, §2

[13] = test system: several cancer cell lines; parameters: method as in PMID 30258223; details: cell proliferation inhibition and apoptosis induction; cited from earlier work
[14] = parameters: method as in PMID 30258223; details: cited from earlier work
[15] = test system: M. luteus; parameters: method as in PMID 30258223; details: cited from earlier work
[16] = test system: Pseudoalteromonas nigrifaciens; parameters: method as in PMID 30258223; details: cited from earlier work
[17] = test system: E. coli; parameters: method as in PMID 30258223; details: cited from earlier work
[18] = test system: B. subtilis; parameters: method as in PMID 30258223; details: cited from earlier work
[19] = test system: MDA-MB-435 human melanoma cells; parameters: method as in PMID 23232928; details: cited from earlier work
[20] = test system: SW620 human colorectal adenocarcinoma cell lines; parameters: method as in PMID 23232928; details: cited from earlier work
[21] = test system: CCR5-tropic HIV-1; parameters: method as in PMID 29258357; details: inhibition of infection; cited from earlier work
[22] = test system: CXCR4-tropic HIV-1; parameters: method as in PMID 29258357; details: inhibition of infection; cited from earlier work
[23] = test system: HeLa cells KB3.1 and mouse fibroblast cell line L929; experiment: Cytotoxicity against two mammalian cell lines (summary statements); details: HeLa KB3.1 and L929
Protocol: as §1, §2

[24] = DSM10, strain DSM 10, starting concentration 66.7 µg/mL, control volume in brackets, read-out: Minimum Inhibitory Concentration (MIC)
[25] = DSM1790, strain DSM 1790, starting concentration 66.7 µg/mL, control volume in brackets, read-out: Minimum Inhibitory Concentration (MIC)
[26] = strain DSM 6766, starting concentration 66.7 µg/mL, control volume in brackets
[27] = DSM346, strain DSM 346, starting concentration 66.7 µg/mL, control volume in brackets, read-out: Minimum Inhibitory Concentration (MIC)

SMILES | MIC [1, 24] [µg/mL] | Minimum Inhibitory Concentration (MIC) [2] | Minimum Inhibitory Concentration (MIC) [3] | MIC [4, 25] [µg/mL] | Minimum Inhibitory Concentration (MIC) [5, 26] | Minimum Inhibitory Concentration (MIC) [6] | MIC [7, 27] [µg/mL] | IC50 [8] [µM] | IC50 [9] [µM] | also measured
COC(=O)C1(C2OC(=O)CC2C)CC(=O)c2c(O)ccc(-c3ccc4c(c3O)C(=O)C3(O)C5(O)CC(C)C(O)C3(O4)C(=O)O5)c2O1 (stereo not drawn) [Compound 1, pseudopalawanone] | 66.7 (≈ 104 µM) | - | - | 66.7 (≈ 104 µM) | - | - | 66.7 (≈ 104 µM) | 29.7 | 50 | 
C[C@H]1CC(O)=C2C(=O)c3c(O)ccc(-c4ccc(O)c5c4O[C@]4(C(=O)O)C(=C(O)C[C@H](C)[C@H]4O)C5=O)c3O[C@@]2(C(=O)O)[C@@H]1O [Compound 2, 4,4′-secalonic acid D] |  | - | - |  | - | - |  | 3.9 | 14.1 | MIC ([1]; DSM10, read-out: Minimum Inhibitory Concentration (MIC)): 1 µg/mL (≈ 1.64 µM); MIC ([10]; Candida albicans, DSM1665, read-out: Minimum Inhibitory Concentration (MIC)): 66.7 µg/mL (≈ 109 µM); Inhibition of Candida albicans (in words) ([10]; comparable to nystatin): showed inhibition; MIC ([4]; DSM1790, read-out: Minimum Inhibitory Concentration (MIC)): 8.3 µg/mL (≈ 13.6 µM); Activity against Mycobacterium smegmatis (in words) [11]: showed activity; MIC ([11]; Mycolicibacterium smegmatis, ATCC700084, read-out: Minimum Inhibitory Concentration (MIC)): 66.7 µg/mL (≈ 109 µM); MIC ([7]; DSM346, read-out: Minimum Inhibitory Concentration (MIC)): 4.2 µg/mL (≈ 6.88 µM); Inhibitory activity against Gram-positive bacteria (in words) ([12]; Bacillus subtilis, Micrococcus luteus, Mycobacterium smegmatis, Staphylococcus aureus): showed inhibitory activity; Antitumor activity (in words) [13]: “potent” antitumor activity; Toxicity (in words) [14]: low toxicity
C[C@H]1CC(O)=C2C(=O)c3c(ccc(-c4ccc(O)c5c4O[C@]4(C(=O)O)C(=C(O)C[C@H](C)[C@@H]4O)C5=O)c3O)O[C@@]2(C(=O)O)[C@H]1O [Compound 3, penicillixanthone A] | 4.2 (≈ 6.88 µM) | - | - | 33.3 (≈ 54.5 µM) |  | - | 33.3 (≈ 54.5 µM) | 17.2 | > 103 | MIC ([5]; Mucor hiemalis, DSM6766, strain DSM 6766, starting concentration 66.7 µg/mL, control volume in brackets, read-out: Minimum Inhibitory Concentration (MIC)): 66.7 µg/mL (≈ 109 µM); Inhibition of Mucor hiemalis (in words) ([5]; comparable to nystatin): inhibited; Antibacterial activity (in words) [15]: moderate antibacterial activity; Antibacterial activity (in words) [16]: moderate antibacterial activity; Antibacterial activity (in words) [17]: moderate antibacterial activity; Antibacterial activity (in words) [18]: moderate antibacterial activity; Cytotoxic effects (in words) [19]: moderate cytotoxic effects; Cytotoxic effects (in words) [20]: moderate cytotoxic effects; Anti-HIV-1 activity (in words) [21]: inhibiting; Anti-HIV-1 activity (in words) [22]: inhibiting
COC(=O)C1(C2OC(=O)CC2C)CC(=O)c2c(O)cccc2O1 (stereo not drawn) [Compound 4, paecilin B] |  | - | - |  | - | - |  | > 200 | > 103 | Minimum Inhibitory Concentration (MIC) ([1]; strain DSM 10, starting concentration 66.7 µg/mL, control volume in brackets): -; Minimum Inhibitory Concentration (MIC) ([4]; strain DSM 1790, starting concentration 66.7 µg/mL, control volume in brackets): -; Minimum Inhibitory Concentration (MIC) ([7]; strain DSM 346, starting concentration 66.7 µg/mL, control volume in brackets): -; Antimicrobial activity (in words) ([12]; fungi and bacteria of Table 3): neither antimicrobial nor cytotoxic activities; Cytotoxic activity (in words) [23]: neither antimicrobial nor cytotoxic activities
